In patent publication US11370763B2, “Compounds and compositions for treating conditions associated with NLRP activity” (Novartis AG, priority 2017, dated 2022):

Tested on: IL-1β production in PMA-differentiated THP-1 cells
Experiment: IL-1β production in PMA-differentiated THP-1 cells stimulated with gramicidin (hTHP-1 assay containing 2% fetal bovine serum; Procedures 1-3)
Format: cell-based, human
Details: Homo sapiens, THP-1, hTHP-1 assay containing 2% fetal bovine serum; class symbols; read-out: hTHP-1 IC50 (Average IC50 of compounds in hTHP-1 assay)
In short: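 THP-1 cells differentiated with PMA (20 ng/ml, 16-18 h), replated in 2% FBS RPMI (50,000 cells/well), preincubated 1 h with compound (top final 100 μM, 3-fold steps, 0.37% DMSO), then stimulated 2 h with gramicidin (5 μM). Supernatant IL-1β measured by HTRF.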

| Compound | IC50 |
| --- | --- |
| CC(C)c1cc(C#N)cc(C(C)C)c1CC(=O)N=S(N)(=O)c1ccc(C(C)(C)O)cc1Cl (single isomer, unassigned) [Example 155, (R) or (S)-N-(amino(2-chloro-4-(2-hydroxypropan-2-yl)phenyl)(oxo)-λ^6-sulfaneylidene)-2-(4-cyano-2,6-diisopropylphenyl)acetamide] | 200 to 1000 nM |
| CC(C)c1ccc(F)c(C(C)C)c1CC(=O)N=S(N)(=O)c1ccc2c(cnn2C)c1 (single isomer, unassigned) [Example 198, (R) or (S)-N-(amino(1-methyl-1H-indazol-5-yl)(oxo)-λ^6-sulfaneylidene)-2-(3-fluoro-2,6-diisopropylphenyl)acetamide] | 5000 to 30000 nM |
| CC(C)(O)c1cnc(S(=N)(=O)NC(=O)Cc2c3c(cc4c2CCC4)CCC3)s1 (single isomer, unassigned) [Example 6] | 1000 to 5000 nM |
| Cc1nc(C(C)(C)O)sc1S(N)(=O)=NC(=O)Cc1c(C(C)C)cc(OC(F)F)cc1C(C)C (stereo not drawn) [Example 39, 2-(4-(difluoromethoxy)-2,6-diisopropylphenyl)-N-(2-(2-hydroxypropan-2-yl)-4-methylthiazole-5-sulfonimidoyl)acetamide] | 200 to 1000 nM |
| CC(C)c1cc(C#N)c(F)c(C(C)C)c1CC(=O)N=S(N)(=O)c1nc(C(C)(C)O)cs1 (stereo not drawn) [Example 133, N-(amino(4-(2-hydroxypropan-2-yl)thiazol-2-yl)(oxo)-λ^6-sulfaneylidene)-2-(4-cyano-3-fluoro-2,6-diisopropylphenyl)acetamide] | 200 to 1000 nM |
| CC(C)c1cc(-c2ccc3c(c2)CCOC3)cc(C(C)C)c1CC(=O)N=S(N)(=O)c1sc(C(C)(C)O)nc1CO (stereo not drawn) [Example 137, N-(amino(4-(hydroxymethyl)-2-(2-hydroxypropan-2-yl)thiazol-5-yl)(oxo)-λ^6-sulfaneylidene)-2-(4-(isochroman-6-yl)-2,6-diisopropylphenyl)acetamide] | 200 to 1000 nM |
| CC(C)(O)c1ncc([S@@](N)(=O)=NC(=O)Cc2cc3c(c4c2CCC4)CCC3)s1 [Compound 259a] | 5000 to 30000 nM |
| CC(C)c1ncc(F)c(C(C)C)c1CC(=O)N=S(N)(=O)c1ncc(C(C)(C)O)s1 (single isomer, unassigned) [Example 204, N-(amino(5-(2-hydroxypropan-2-yl)thiazol-2-yl)(oxo)-λ^6-sulfaneylidene)-2-(5-fluoro-2,4-diisopropylpyridin-3-yl)acetamide] | 1000 to 5000 nM |
| CC(C)c1cc(F)cc(C2CCOC2)c1CC(=O)N=S(N)(=O)c1cnc(C(C)(C)O)s1 (stereo not drawn) [Example 102, N-(amino(2-(2-hydroxypropan-2-yl)thiazol-5-yl)(oxo)-λ^6-sulfaneylidene)-2-(4-fluoro-2-isopropyl-6-(tetrahydrofuran-3-yl)phenyl)acetamide] | 5000 to 30000 nM |
| CC(C)c1cc(C#N)cc(C2CC2)c1CC(=O)N=S(N)(=O)c1sc(C(C)(C)O)nc1CO (stereo not drawn) [Example 25, 2-(4-cyano-2-cyclopropyl-6-isopropylphenyl)-N-(4-(hydroxymethyl)-2-(2-hydroxypropan-2-yl)thiazole-5-sulfonimidoyl)acetamide] | 1000 to 5000 nM |
| CC(C)c1cc(Cl)c(F)c(C2CC2)c1CC(=O)N=S(N)(=O)c1sc(C(C)(C)O)cc1F (stereo not drawn) [Example 20, 2-(4-chloro-2-cyclopropyl-3-fluoro-6-isopropylphenyl)-N-(3-fluoro-5-(2-hydroxypropan-2-yl)thiophen-2-ylsulfonimidoyl)acetamide] | 200 to 1000 nM |
| CC(C)c1cc(F)cc(C2CC2)c1CC(=O)N=S(N)(=O)c1sc(C(C)(C)O)cc1F (stereo not drawn) [Example 18, 2-(2-cyclopropyl-4-fluoro-6-isopropylphenyl)-N-(3-fluoro-5-(2-hydroxypropan-2-yl)thiophen-2-ylsulfonimidoyl)acetamide] | 40 to 200 nM |
| CC(C)(O)c1nc(CO)c(S(N)(=O)=NC(=O)Cc2c3c(cc4c2CCC4)CCC3)s1 (stereo not drawn) [Example 23, 2-(1,2,3,5,6,7-hexahydros-indacen-4-yl)-N-(4-(hydroxymethyl)-2-(2-hydroxypropan-2-yl)thiazol-5-ylsulfonimidoyl)acetamide] | 1000 to 5000 nM |

Same assay, conditions: hTHP-1 assay containing 2% fetal bovine serum; class symbols; read-out: hTHP-1 IC50 (Average IC50 of compounds in hTHP-1 assay)

| Compound | IC50 |
| --- | --- |
| CC(C)c1cc(F)cc(C(C)C)c1CC(=O)N=S(N)(=O)c1ccc(C(C)(C)O)cc1 (stereo not drawn) [Compound 131] | 5000 to 30000 nM |
| CC(C)c1cc(OC(F)F)cc(C(C)C)c1CC(=O)N=S(N)(=O)c1sc(C(C)(C)O)cc1F (single isomer, unassigned) [Example 76, (S)- or (R)-2-(4-(difluoromethoxy)-2,6-diisopropylphenyl)-N-(3-fluoro-5-(2-hydroxypropan-2-yl)thiophen-2-ylsulfonimidoyl)acetamide] | 40 to 200 nM |
